Values of other authors in US4916151A, “Method of treating parkinson's syndrome” (Merrell Dow Pharmaceuticals Inc., priority 1989, dated 1990).

Key:
MAO = settings: literature; selectivity lost as dosage is increased
depression = settings: literature reports
[1] = literature

Structure (SMILES)	preferential inhibition of MAO-A or MAO-B (MAO)	clinical antidepressant effect (depression)	potentiation of L-dopa for treatment of Parkinson's disease [1]
N[C@@H]1C[C@H]1c1ccccc1 (relative stereo) [tranylcypromine]	not preferential in their action upon MAO	–	–
C#CCN(C)[C@H](C)Cc1ccccc1 [L-deprenyl]	MAO-B is preferentially inhibited	clinically effective antidepressant agents	potentiate L-dopa for the treatment of Parkinson's disease without producing peripheral side effects
C#CCN(C)CCCOc1ccc(Cl)cc1Cl [clorgyline]	–	clinically effective antidepressant agents	–
Cc1cc(C(=O)NNCc2ccccc2)no1 [isocarboxazid]	not preferential in their action upon MAO	–	–
C#CCN(C)Cc1ccccc1 [pargyline]	MAO-B is preferentially inhibited	clinically effective antidepressant agents	–
NNCCc1ccccc1 [phenelzine]	not preferential in their action upon MAO	–	–
